Experimental data as given in patent US8138189B2, “Substituted benzene compounds as modulators of the glucocorticoid receptor” (Hoffman-La Roche Inc., priority 2009, dated 2012).

Biological target: T1, full length human recombinant glucocorticoid receptor (Homo sapiens, UniProt P04150)
T1 construct: partially purified full length human recombinant glucocorticoid receptor; purchased Panvera/Invitrogen PV4302
T1 sequence (P04150 1-777): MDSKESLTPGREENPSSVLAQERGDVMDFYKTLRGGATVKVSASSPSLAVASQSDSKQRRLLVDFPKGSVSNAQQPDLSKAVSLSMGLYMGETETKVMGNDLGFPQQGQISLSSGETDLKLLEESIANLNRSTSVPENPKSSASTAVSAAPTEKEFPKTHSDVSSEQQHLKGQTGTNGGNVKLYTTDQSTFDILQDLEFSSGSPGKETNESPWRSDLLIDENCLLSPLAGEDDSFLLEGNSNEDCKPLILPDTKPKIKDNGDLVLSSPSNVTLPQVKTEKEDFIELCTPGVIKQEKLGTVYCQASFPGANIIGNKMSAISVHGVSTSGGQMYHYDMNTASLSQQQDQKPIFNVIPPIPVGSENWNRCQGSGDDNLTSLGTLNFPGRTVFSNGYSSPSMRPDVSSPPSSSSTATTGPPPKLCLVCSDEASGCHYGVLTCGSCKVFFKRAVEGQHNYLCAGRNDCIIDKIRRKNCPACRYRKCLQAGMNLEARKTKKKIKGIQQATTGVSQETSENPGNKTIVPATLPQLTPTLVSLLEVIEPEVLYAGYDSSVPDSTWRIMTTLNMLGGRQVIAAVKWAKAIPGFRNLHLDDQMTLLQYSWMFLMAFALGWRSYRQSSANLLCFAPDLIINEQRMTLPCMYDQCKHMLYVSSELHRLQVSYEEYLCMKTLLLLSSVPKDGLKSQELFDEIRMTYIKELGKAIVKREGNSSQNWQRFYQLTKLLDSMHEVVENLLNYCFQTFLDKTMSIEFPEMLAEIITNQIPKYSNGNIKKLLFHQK
Experiment: Glucocorticoid Receptor Binding Assay (fluorescence polarization competitor assay, Fluormone GS Far Red tracer)
In short: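 Serially diluted compounds competed with the tight-binding far-red fluorescent ligand for recombinant full-length human glucocorticoid receptor plus GR-stabilizing peptide (screening buffer pH 7.4; 3 h, 22 °C, dark). Polarization (610-660 nm) gave IC50 via sigmoidal dose-response fits, and Ki was derived by Cheng-Prusoff from tracer concentration and Kd.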

## C[C@@H](c1ccc(OCc2ccc(C3(C(=O)O)CC3)cc2)cc1Cl)[C@](O)(c1cnc2ccccc2c1)C(F)(F)F (stereo in doubt) [Example 143, 1-{4-[3-Chloro-4-(3,3,3-trifluoro-2-hydroxy-1-methyl-2-quinolin-3-yl-propyl)-phenoxymethyl]-phenyl}-cyclopropanecarboxylic acid]
  Ki: 4.6 nM

## COC(=O)Cc1ccc(COc2ccc([C@H](C)[C@](O)(c3cnc4ccccc4c3)C(F)(F)F)c(Cl)c2)cc1 (stereo in doubt) [Example 144, {4-[3-Chloro-4-(3,3,3-trifluoro-2-hydroxy-1-methyl-2-quinolin-3-yl-propyl)-phenoxymethyl]-phenyl}-acetic acid methyl ester]
  Ki: 3.6 nM

## C[C@@H](c1ccc(OCc2ccc(C(=O)O)cc2)cc1Cl)[C@](O)(c1cccc2cnccc12)C(F)(F)F (stereo in doubt) [Example 148, 4-[3-Chloro-4-(3,3,3-trifluoro-2-hydroxy-2-isoquinolin-5-yl-1-methyl-propyl)-phenoxymethyl]-benzoic acid]
  Ki: 1.3 nM

## C[C@@H](c1ccc(OCc2ccc(CC(=O)O)cc2)cc1Cl)[C@](O)(c1cccc2cnccc12)C(F)(F)F (stereo in doubt) [Example 149, {4-[3-Chloro-4-(3,3,3-trifluoro-2-hydroxy-2-isoquinolin-5-yl-1-methyl-propyl)-phenoxymethyl]-phenyl}-acetic acid]
  Ki: 1.8 nM

## C[C@@H](c1ccc(-c2ccc(C(=O)O)c(F)c2)cc1Cl)[C@](O)(c1cccc2cnccc12)C(F)(F)F (stereo in doubt) [Example 150, 3′-Chloro-3-fluoro-4′-(3,3,3-trifluoro-2-hydroxy-2-isoquinolin-5-yl-1-methyl-propyl)-biphenyl-4-carboxylic acid]
  Ki: 9.5 nM

## C[C@H](c1ccc(Oc2ccc(C(=O)O)cc2)cc1Cl)[C@@](O)(c1ccc(=O)n(C)c1)C(F)(F)F (stereo in doubt) [Example 152, 4-{3-Chloro-4-[3,3,3-trifluoro-2-hydroxy-1-methyl-2-(1-methyl-6-oxo-1,6-dihydro-pyridin-3-yl)-propyl]-phenoxy}-benzoic acid]
  Ki: 3.3 nM

## COC(=O)c1ccc(Oc2ccc([C@@H](C)[C@@](O)(c3ccc(=O)n(C)c3)C(F)(F)F)c(Cl)c2)cc1Cl (stereo in doubt) [Example 153, 2-Chloro-4-{3-chloro-4-[3,3,3-trifluoro-2-hydroxy-1-methyl-2-(1-methyl-6-oxo-1,6-dihydro-pyridin-3-yl)-propyl]-phenoxy}-benzoic acid methyl ester]
  Ki: 4.9 nM

## C[C@H](c1ccc(Oc2ccc(C(=O)O)c(Cl)c2)cc1Cl)[C@@](O)(c1ccc(=O)n(C)c1)C(F)(F)F (stereo in doubt) [Example 154, 2-Chloro-4-{3-chloro-4-[3,3,3-trifluoro-2-hydroxy-1-methyl-2-(1-methyl-6-oxo-1,6-dihydro-pyridin-3-yl)-propyl]-phenoxy}-benzoic acid]
  Ki: 6.3 nM

## C[C@H](c1ccc(Oc2ccc(C(=O)O)c(F)c2)cc1Cl)[C@@](O)(c1ccc(=O)n(C)c1)C(F)(F)F (stereo in doubt) [Example 155, 4-{3-Chloro-4-[3,3,3-trifluoro-2-hydroxy-1-methyl-2-(1-methyl-6-oxo-1,6-dihydro-pyridin-3-yl)-propyl]-phenoxy}-2-fluoro-benzoic acid]
  Ki: 46.2 nM

## C[C@H](c1ccc(Oc2ccc(CC(=O)O)cc2)cc1Cl)[C@@](O)(c1ccc(=O)n(C)c1)C(F)(F)F (stereo in doubt) [Example 158, (4-{3-Chloro-4-[3,3,3-trifluoro-2-hydroxy-1-methyl-2-(1-methyl-6-oxo-1,6-dihydro-pyridin-3-yl)-propyl]-phenoxy}-phenyl)-acetic acid]
  Ki: 7.1 nM

## CCOC(=O)COc1cc(Oc2ccc([C@@H](C)[C@@](O)(c3ccc(=O)n(C)c3)C(F)(F)F)c(Cl)c2)ccc1F (stereo in doubt) [Example 161, (5-{3-Chloro-4-[3,3,3-trifluoro-2-hydroxy-1-methyl-2-(1-methyl-6-oxo-1,6-dihydro-pyridin-3-yl)-propyl]-phenoxy}-2-fluoro-phenoxy)-acetic acid ethyl ester]
  Ki: 3.1 nM
